In the NIST ThermoML archive (doi:10.1016/j.jct.2004.07.025):
“And” between values parts separate entries of the source, which are not always exact repeats. Equal entries are not always repeated. ± gives the expanded uncertainty stated by the source.

Conditions: Liquid

CCOC(=O)c1ccccc1C(=O)OCC [diethyl phthalate]
Conditions	vapor or sublimation pressure
303.19 K, Calculated from knudsen effusion weight loss	0.000165 ± 1e-05 kPa
307.62 K, Calculated from knudsen effusion weight loss	0.00026 ± 1.6e-05 kPa
308.1 K, Calculated from knudsen effusion weight loss	0.000271 ± 1.7e-05 kPa
313.34 K, Calculated from knudsen effusion weight loss	0.000456 ± 2.8e-05 kPa
318.54 K, Calculated from knudsen effusion weight loss	0.000769 ± 4.7e-05 kPa
323.04 K, Calculated from knudsen effusion weight loss	0.00116 ± 0.0001 kPa
323.33 K, Calculated from knudsen effusion weight loss	0.001179 ± 0.00011 kPa
328.33 K, Calculated from knudsen effusion weight loss	0.001842 ± 0.00017 kPa
333.55 K, Calculated from knudsen effusion weight loss	0.002839 ± 0.00028 kPa
333.58 K, Calculated from knudsen effusion weight loss	0.002895 ± 0.00029 kPa
333.68 K, Calculated from knudsen effusion weight loss	0.00286 ± 0.00029 kPa
335.05 K, Closed cell (Static) method	0.0037 ± 0.00019 kPa
335.07 K, Closed cell (Static) method	0.0037 ± 0.00019 kPa
337.65 K, Calculated from knudsen effusion weight loss	0.003873 ± 0.0004 kPa
338.68 K, Calculated from knudsen effusion weight loss	0.004379 ± 0.00046 kPa
343.7 K, Calculated from knudsen effusion weight loss	0.006569 ± 0.00073 kPa
344.41 K, Closed cell (Static) method	0.0076 ± 0.00033 kPa
344.43 K, Closed cell (Static) method	0.0077 ± 0.00034 kPa
354.01 K, Closed cell (Static) method	0.0158 ± 0.0006 kPa
354.03 K, Closed cell (Static) method	0.0159 ± 0.0006 kPa
363.15 K, Closed cell (Static) method	0.0304 ± 0.0009 kPa
363.16 K, Closed cell (Static) method	0.0305 ± 0.0009 kPa
365.75 K, Closed cell (Static) method	0.036 ± 0.0011 kPa and 0.0359 ± 0.0011 kPa
365.77 K, Closed cell (Static) method	0.0363 ± 0.0011 kPa
375.29 K, Closed cell (Static) method	0.0671 ± 0.0018 kPa
375.31 K, Closed cell (Static) method	0.0671 ± 0.0018 kPa
384.96 K, Closed cell (Static) method	0.121 ± 0.003 kPa
394.42 K, Closed cell (Static) method	0.21 ± 0.005 kPa and 0.209 ± 0.005 kPa and 0.207 ± 0.005 kPa
394.43 K, Closed cell (Static) method	0.208 ± 0.005 kPa
394.47 K, Closed cell (Static) method	0.207 ± 0.005 kPa
403.73 K, Closed cell (Static) method	0.346 ± 0.008 kPa
403.77 K, Closed cell (Static) method	0.347 ± 0.008 kPa
404.25 K, Closed cell (Static) method	0.352 ± 0.008 kPa
404.27 K, Closed cell (Static) method	0.352 ± 0.008 kPa
413.4 K, Closed cell (Static) method	0.568 ± 0.012 kPa
413.43 K, Closed cell (Static) method	0.569 ± 0.012 kPa
414.26 K, Closed cell (Static) method	0.585 ± 0.013 kPa
414.27 K, Closed cell (Static) method	0.586 ± 0.013 kPa
424.06 K, Closed cell (Static) method	0.94 ± 0.02 kPa
424.09 K, Closed cell (Static) method	0.94 ± 0.02 kPa
479.25 K, Ebulliometric method (Recirculating still)	8.318 ± 0.012 kPa
487.77 K, Ebulliometric method (Recirculating still)	11.06 ± 0.014 kPa
494.93 K, Ebulliometric method (Recirculating still)	13.9 ± 0.017 kPa
501 K, Ebulliometric method (Recirculating still)	16.77 ± 0.019 kPa
507.32 K, Ebulliometric method (Recirculating still)	20.26 ± 0.023 kPa
513.93 K, Ebulliometric method (Recirculating still)	24.53 ± 0.027 kPa
520.32 K, Ebulliometric method (Recirculating still)	29.35 ± 0.032 kPa
